Experimental data as given in publication PMC7588185 (2020).

Tested on: aad-4 riboswitch RNA (aad-4 leader RNA) (RNA, riboswitch) GGAGCAGCAACGAUGUUACGCAGCAGGGCAGUCGCCCUAAACAAAGUUAGGCCGCAUGGACACAACGCAGGUCACAUUGAUACACCAAAUUCUAGCUGCGGCAGAUGAGCGAAAU
Experiment: MicroScale Thermophoresis
Conditions: 100 mM KCl, 0.1 mM MgCl2, 10 mM HEPES pH 7.5, FTSC-labelled RNA
[1] = only group range 1.2–3.9 µM given

Row | Compound | Kd [1] [µM] | Kd [µM]
1 | CN[C@@H]1[C@@H](O)[C@@H](O[C@@H]2[C@@H](O)[C@H](O[C@H]3OC(CN)=CC[C@H]3N)[C@@H](N)C[C@H]2N)OC[C@]1(C)O | 2.16 ± 0.25 | –
2 | NC[C@@H]1O[C@H](O[C@H]2[C@@H](O)[C@H](O[C@@H]3[C@@H](O)[C@H](N)C[C@H](N)[C@H]3O[C@H]3O[C@H](CO)[C@@H](O)[C@H](O)[C@H]3N)O[C@@H]2CO)[C@H](N)[C@@H](O)[C@@H]1O | – | 10
3 | NC[C@H]1O[C@H](O[C@H]2[C@H](O)[C@@H](O)[C@H](N)C[C@@H]2N)[C@H](N)[C@@H](O)[C@@H]1O | – | 12
4 | NC[C@H]1O[C@H](O[C@H]2[C@H](O)[C@@H](O[C@H]3O[C@H](CO)[C@@H](O)[C@H](N)[C@H]3O)[C@H](N)C[C@@H]2N)[C@H](N)C[C@@H]1O | 1.58 ± 0.28 | –
5 | NC[C@H]1O[C@H](O[C@H]2[C@H](O)[C@@H](O[C@H]3O[C@H](CO)[C@@H](O)[C@H](N)[C@H]3O)[C@H](N)C[C@@H]2N)[C@H](N)[C@@H](O)[C@@H]1O | 2.55 ± 0.24 | –
6 | NC[C@H]1O[C@H](O[C@H]2[C@H](O[C@@H]3O[C@H](CO)[C@@H](O)[C@H]3O)[C@@H](O)[C@H](N)C[C@@H]2N)[C@H](N)[C@@H](O)[C@@H]1O | – | 40
